# Measured values taken from BindingDB's records for doi:10.1016/s0960-894x(01)00654-0 (Merck Research Laboratories, 2001).
# pIC50: −log10 of the molar value.
# Assays:
# [1] = biological target: T1, C-C chemokine receptor type 5 (Homo sapiens, UniProt P51681); assay: ChEBML_39507
# Description: (§1) Binding affinity against C-C chemokine receptor type 5 stably expressed in Chinese hamster ovary (CHO) cells using [125I]-MIP-1 alpha as the radioligand
# [2] = biological target: T1, C-C chemokine receptor type 5; assay: as §1
# T1 sequence (P51681 whole entry): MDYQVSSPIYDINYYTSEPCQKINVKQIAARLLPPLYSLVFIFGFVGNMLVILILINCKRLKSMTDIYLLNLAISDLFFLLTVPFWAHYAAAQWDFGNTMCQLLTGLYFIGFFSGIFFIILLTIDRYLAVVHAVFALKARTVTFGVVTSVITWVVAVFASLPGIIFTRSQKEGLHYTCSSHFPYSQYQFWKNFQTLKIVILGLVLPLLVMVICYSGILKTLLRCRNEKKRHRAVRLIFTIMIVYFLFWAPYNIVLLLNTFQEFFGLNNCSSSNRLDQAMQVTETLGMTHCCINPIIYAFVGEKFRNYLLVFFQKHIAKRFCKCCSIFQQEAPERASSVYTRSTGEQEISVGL
smiles,measurement,setting,value
"O=c1[nH]c(Cc2c[nH]c3ccccc23)c(O)n1CC(CCN1CCC(c2ccccc2)CC1)c1cccc(Cl)c1 [(R)-3-[2-(3-Chloro-phenyl)-4-(4-phenyl-piperidin-1-yl)-butyl]-5-(1H-indol-3-ylmethyl)-imidazolidine-2,4-dione]",pIC50,[1],7.60
same,pIC50,[2],7.60
